# Positions of bridges follow the written chain, without caps; N, C: chain ends. Non-standard residues stand in square brackets, D forms with d. Residues, ends and D or L forms follow the SMILES beside them. ξ: configuration not given here. *: point of attachment. X12 = O=C(O)CCCCCCCCCCCCCCCCCCC(=O)N[C@@H](CCC(=O)NCCCOCCOCCOCCCN*)C(=O)O; Trp(1-CH2COOH) = N[C@@H](Cc1cn(CC(=O)O)c2ccccc12)C(=O)O; X14 = O=C(O)CCCCCCCCCCNC(=O)CCC(=O)NCCCOCCOCCOCCCN*; X9 = O=C(O)CCCCCCCCCCCCCCCCC(=O)N[C@@H](CCN*)C(=O)O; NH(CH2)14COOH = O=C(O)CCCCCCCCCCCCCCN*; ξPro(4R-OH) = O=C(O)C1C[C@@H](O)CN1; Hyp = O=C(O)[C@@H]1C[C@@H](O)CN1; NMeNle = CCCC[C@H](NC)C(=O)O; Pip = O=C(O)[C@@H]1CCCCN1; NMeA = CN[C@@H](C)C(=O)O; Pra = C#CC[C@H](N)C(=O)O; Dab = NCC[C@H](N)C(=O)O; Dap = NC[C@H](N)C(=O)O
# Target: T1, PD-L1 (Homo sapiens, UniProt Q9NZQ7)
# T1 construct: hPDL1(19-239)-TVMV-His; made in house; host or cells: HEK293T
# Assay: PD-1/PD-L1 Homogenous Time-Resolved Fluorescence (HTRF) binding assay (PD-1-Ig/PD-L1-His)
# Conditions: inhibition of PD-1-Ig binding to PD-L1-TVMV-His; value given as number; read-out: HTRF IC50
# Procedure, shortened: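 HTRF competition in dPBS with 0.1% BSA and 0.05% Tween-20: 20 nM PD-1-Ig added after 15 min compound pre-incubation with 10 nM PD-L1-His, then another 15 min. Signal (665/620 nm) after 30 min with APC anti-His (20 nM) and Eu anti-Ig (1 nM).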
# T1 sequence (Q9NZQ7 with tags, fused parts or gaps): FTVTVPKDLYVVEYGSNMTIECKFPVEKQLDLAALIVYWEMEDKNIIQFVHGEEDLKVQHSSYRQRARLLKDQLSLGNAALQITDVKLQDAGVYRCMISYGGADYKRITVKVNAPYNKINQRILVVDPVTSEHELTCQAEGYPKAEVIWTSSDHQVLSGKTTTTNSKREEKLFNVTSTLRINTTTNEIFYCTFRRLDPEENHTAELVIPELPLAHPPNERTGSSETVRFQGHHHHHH
row,Compound,IC50
1,CCCC[C@H]1C(=O)N(C)[C@@H](CCCC)C(=O)N[C@@H](CC(C)C)C(=O)N[C@H](C(=O)NCCCOCCOCCOCCCNC(=O)CCC(=O)NCCCCCCCCCCC(=O)O)CSCC(=O)N[C@@H](Cc2ccc(O)cc2)C(=O)N(C)[C@@H](C)C(=O)N[C@@H](CC(N)=O)C(=O)N2CCC[C@H]2C(=O)N[C@@H](Cc2cnc[nH]2)C(=O)N[C@@H](CCC(=O)O)C(=O)N2C[C@H](O)C[C@H]2C(=O)N[C@@H](Cc2c[nH]c3ccccc23)C(=O)N[C@@H](CCN)C(=O)N[C@@H](Cc2cn(CC(=O)O)c3ccccc23)C(=O)N1C [Example 11075] ({CH2CO}-Y[NMeA]NPHE[Hyp]W[Dab][Trp(1-CH2COOH)][NMeNle][NMeNle]LC-X14; thioether N-14),7.1 nM

# Same assay, conditions: inhibition of PD-1-Ig binding to PD-L1-TVMV-His; value given as range class; read-out: HTRF IC50
row,Compound,IC50
1,C#CC[C@H](NC(=O)[C@@H]1CSCC(=O)N[C@@H](Cc2ccc(O)cc2)C(=O)N(C)[C@@H](C)C(=O)N[C@@H](CC(N)=O)C(=O)N2CCC[C@H]2C(=O)N[C@@H](CN)C(=O)N[C@@H](CC(C)C)C(=O)N2C[C@H](O)C[C@H]2C(=O)N[C@@H](Cc2c[nH]c3ccccc23)C(=O)N[C@@H](CCN)C(=O)N[C@@H](Cc2cn(CC(=O)O)c3ccccc23)C(=O)N(C)[C@@H](CCCC)C(=O)N(C)[C@@H](CCCC)C(=O)N[C@@H](CCC(=O)O)C(=O)N1)C(=O)O [INT130AG] ({CH2CO}-Y[NMeA]NP[Dap]L[Hyp]W[Dab][Trp(1-CH2COOH)][NMeNle][NMeNle]EC[Pra]-OH; thioether N-14),0.3 to 9.9 nM
2,CCCC[C@H]1C(=O)N(C)[C@@H](CCCC)C(=O)N[C@@H](CC(C)C)C(=O)N[C@H](C(=O)NCC(=O)N[C@@H](CC(=O)O)C(=O)N[C@@H](CC(=O)NCCCOCCOCCOCCCNC(=O)CC[C@H](NC(=O)CCCCCCCCCCCCCCCCCCC(=O)O)C(=O)O)C(=O)O)CSCC(=O)N[C@@H](Cc2ccc(O)cc2)C(=O)N(C)[C@@H](C)C(=O)N[C@@H](CC(N)=O)C(=O)N2CCC[C@H]2C(=O)N[C@@H](CN)C(=O)N[C@@H](CC(C)C)C(=O)N2C[C@H](O)CC2C(=O)N[C@@H](Cc2c[nH]c3ccccc23)C(=O)N[C@@H](CCN)C(=O)N[C@@H](Cc2cn(CC(=O)O)c3ccccc23)C(=O)N1C (stereo partly drawn) [Example 11250] ({CH2CO}-Y[NMeA]NP[Dap]L[ξPro(4R-OH)]W[Dab][Trp(1-CH2COOH)][NMeNle][NMeNle]LCGDD(X12)-OH; thioether N-14),0.3 to 9.9 nM
3,CCCC[C@H]1C(=O)N(C)[C@@H](CCCC)C(=O)N[C@@H](CC(C)C)C(=O)N[C@H](C(=O)NCC(=O)N[C@@H](CC(=O)NCC[C@H](NC(=O)CCCCCCCCCCCCCCCCC(=O)O)C(=O)O)C(=O)O)CSCC(=O)N[C@@H](Cc2ccc(OC)cc2)C(=O)N2CCCC[C@H]2C(=O)N[C@@H](CC(N)=O)C(=O)N2CCC[C@H]2C(=O)N[C@@H](Cc2c[nH]cn2)C(=O)N[C@@H](CCC(N)=O)C(=O)N2C[C@H](O)C[C@H]2C(=O)N[C@@H](Cc2c[nH]c3ccccc23)C(=O)N[C@@H](CCN)C(=O)N[C@@H](Cc2cn(CC(=O)O)c3ccccc23)C(=O)N1C [Example 13156] ({CH2CO}-Y(Me)[Pip]NPHQ[Hyp]W[Dab][Trp(1-CH2COOH)][NMeNle][NMeNle]LCGD(X9)-OH; thioether N-14),0.3 to 9.9 nM
4,CCCC[C@H]1C(=O)N(C)[C@@H](CCCC)C(=O)N[C@@H](CC(C)C)C(=O)N[C@H](C(=O)NCC(=O)NCCCCCCCCCCCCCCC(=O)O)CSCC(=O)N[C@@H](Cc2ccc(O)cc2)C(=O)N(C)[C@@H](C)C(=O)N[C@@H](CC(N)=O)C(=O)N2CCC[C@H]2C(=O)N[C@@H](CN)C(=O)N[C@@H](CC(C)C)C(=O)N2C[C@H](O)C[C@H]2C(=O)N[C@@H](Cc2c[nH]c3ccccc23)C(=O)N[C@@H](CCN)C(=O)N[C@@H](Cc2cn(CC(=O)O)c3ccccc23)C(=O)N1C [Example 11197] ({CH2CO}-Y[NMeA]NP[Dap]L[Hyp]W[Dab][Trp(1-CH2COOH)][NMeNle][NMeNle]LCG-{NH(CH2)14COOH}; thioether N-14),10 to 99 nM
5,CCCC[C@H]1C(=O)N(C)[C@@H](CCCC)C(=O)N[C@@H](CCC(=O)O)C(=O)N[C@H](C(=O)NCC(=O)N[C@@H](Cc2cn(CCOCCOCCOCCOC)nn2)C(=O)NCC(N)=O)CSCC(=O)N[C@@H](Cc2ccc(O)cc2)C(=O)N(C)[C@@H](C)C(=O)N[C@@H](CC(=O)O)C(=O)N2CCC[C@H]2C(=O)N[C@@H](Cc2c[nH]cn2)C(=O)N[C@@H](CCCCN)C(=O)N2C[C@H](O)C[C@H]2C(=O)N[C@@H](Cc2c[nH]c3ccccc23)C(=O)N[C@@H](CCCCN)C(=O)N[C@@H](Cc2c[nH]c3ccccc23)C(=O)N1C [Example 14063],10 to 99 nM

# Source: patent US10633419B2, “Immunomodulators” (BRISTOL-MYERS SQUIBB COMPANY, priority 2014, dated 2020)
